Measurements reported in PMC5218480 (PLoS ONE, 2017).

Tested on: MV-4-11 cells
Assay: Gene expression microarray analysis (Affymetrix PrimeView) and GSEA
Format: cell-based, human
Parameters: RFU PODN (11730768_x_at) / Fold change /veh PODN (11730768_x_at) / RFU LINC00158 (11744669_a_at) / Fold change /veh LINC00158 (11744669_a_at) / RFU DUSP10 (11751237_a_at) / Fold change /veh DUSP10 (11751237_a_at) / RFU ID3 (11757404_x_at) / Fold change /veh ID3 (11757404_x_at) / RFU PLEKHG5 (11737974_s_at) / Fold change /veh PLEKHG5 (11737974_s_at) / RFU LRRC4B (11730491_at) / Fold change /veh LRRC4B (11730491_at) / RFU GIMAP4 (11747438_a_at) / Fold change /veh GIMAP4 (11747438_a_at) / RFU KRT8 (11758183_x_at) / Fold change /veh KRT8 (11758183_x_at) / RFU CNN1 (11734310_a_at) / Fold change /veh CNN1 (11734310_a_at) / RFU VPS37D (11726825_at) / Fold change /veh VPS37D (11726825_at) / RFU C10orf10 (11716522_x_at) / Fold change /veh C10orf10 (11716522_x_at) / RFU KIR2DL2 /// KIR2DL4 /// KIR2DL5A /// KIR2DL5B /// KIR2DS1 /// KIR2DS2 /// KIR2DS3 /// KIR2DS4 /// KIR3DL3 /// KIR3DL3 /// KIR3DS1 (11738374_at) / Fold change /veh KIR2DL2 /// KIR2DL4 /// KIR2DL5A /// KIR2DL5B /// KIR2DS1 /// KIR2DS2 /// KIR2DS3 /// KIR2DS4 /// KIR3DL3 /// KIR3DL3 /// KIR3DS1 (11738374_at) / RFU C1QL1 (11718748_at) / Fold change /veh C1QL1 (11718748_at) / RFU TMPRSS4 (11747572_a_at) / Fold change /veh TMPRSS4 (11747572_a_at) / RFU HAMP (11756126_x_at) / Fold change /veh HAMP (11756126_x_at) / RFU RNFT2 (11725882_a_at) / Fold change /veh RNFT2 (11725882_a_at) / RFU NR4A2 (11747474_a_at) / Fold change /veh NR4A2 (11747474_a_at) / RFU ABCC12 (11746883_a_at) / Fold change /veh ABCC12 (11746883_a_at) / RFU TMEM136 (11760407_x_at) / Fold change /veh TMEM136 (11760407_x_at) / RFU CLDN22 /// WWC2 (11732394_at) / Fold change /veh CLDN22 /// WWC2 (11732394_at) / RFU HLA-DPB1 (11760878_x_at) / Fold change /veh HLA-DPB1 (11760878_x_at) / RFU SPINT1 (11716480_a_at) / Fold change /veh SPINT1 (11716480_a_at) / RFU GAP43 (11754022_s_at) / Fold change /veh GAP43 (11754022_s_at) / RFU A4GNT (11735810_at) / Fold change /veh A4GNT (11735810_at) / RFU PRB3 (11715151_x_at) / Fold change /veh PRB3 (11715151_x_at) / RFU TUBB4B (11761932_at) / Fold change /veh TUBB4B (11761932_at) / RFU CAPN14 (11732068_a_at) / Fold change /veh CAPN14 (11732068_a_at) / RFU TMCC2 (11721928_a_at) / Fold change /veh TMCC2 (11721928_a_at) / RFU IRGQ (11745062_a_at) / Fold change /veh IRGQ (11745062_a_at) / RFU FAM174B (11720279_a_at) / Fold change /veh FAM174B (11720279_a_at) / RFU TMPRSS4 (11748680_a_at) / Fold change /veh TMPRSS4 (11748680_a_at) / RFU FAM212B (11763350_a_at) / Fold change /veh FAM212B (11763350_a_at) / RFU PLEKHG5 (11743358_a_at) / Fold change /veh PLEKHG5 (11743358_a_at) / RFU ZSCAN30 (11745921_a_at) / Fold change /veh ZSCAN30 (11745921_a_at) / RFU CMKLR1 (11741424_a_at) / Fold change /veh CMKLR1 (11741424_a_at) / RFU LOC101060620 /// MAPK8IP1 (11723275_at) / Fold change /veh LOC101060620 /// MAPK8IP1 (11723275_at) / RFU SPTSSB (11747773_x_at) / Fold change /veh SPTSSB (11747773_x_at) / RFU PRSS12 (11739890_at) / Fold change /veh PRSS12 (11739890_at) / RFU BIN1 (11741810_x_at) / Fold change /veh BIN1 (11741810_x_at) / RFU WNT11 (11732464_a_at) / Fold change /veh WNT11 (11732464_a_at) / RFU C10orf10 (11716521_a_at) / Fold change /veh C10orf10 (11716521_a_at) / RFU C5orf56 (11738089_at) / Fold change /veh C5orf56 (11738089_at) / RFU CYB561 (11721691_x_at) / Fold change /veh CYB561 (11721691_x_at) / RFU ANKRD19P (11752326_a_at) / Fold change /veh ANKRD19P (11752326_a_at) / RFU OR2T12 /// OR2T33 /// OR2T8 (11738714_s_at) / Fold change /veh OR2T12 /// OR2T33 /// OR2T8 (11738714_s_at) / RFU VCAN (11748164_a_at) / Fold change /veh VCAN (11748164_a_at) / RFU JSRP1 (11732532_at) / Fold change /veh JSRP1 (11732532_at) / RFU KRTAP10-11 (11738290_x_at) / Fold change /veh KRTAP10-11 (11738290_x_at) / RFU MYO3A (11730013_a_at) / Fold change /veh MYO3A (11730013_a_at) / RFU EBF3 (11725865_a_at) / Fold change /veh EBF3 (11725865_a_at) / RFU CAMK2N1 (11719241_x_at) / Fold change /veh CAMK2N1 (11719241_x_at) / RFU C5orf56 (11738088_a_at) / Fold change /veh C5orf56 (11738088_a_at) / RFU OLFML3 (11715873_a_at) / Fold change /veh OLFML3 (11715873_a_at) / RFU LOC100653217 /// NTM (11731650_a_at) / Fold change /veh LOC100653217 /// NTM (11731650_a_at) / RFU MAPK11 (11762145_a_at) / Fold change /veh MAPK11 (11762145_a_at) / RFU FIZ1 (11724087_x_at) / Fold change /veh FIZ1 (11724087_x_at) / RFU OASL (11726364_x_at) / Fold change /veh OASL (11726364_x_at) / RFU SOX15 (11748057_x_at) / Fold change /veh SOX15 (11748057_x_at) / RFU CD79A (11719716_a_at) / Fold change /veh CD79A (11719716_a_at) / RFU HIST1H1D (11736915_at) / Fold change /veh HIST1H1D (11736915_at) / RFU CASKIN2 (11723855_a_at) / Fold change /veh CASKIN2 (11723855_a_at) / RFU LOC730098 (11760151_x_at) / Fold change /veh LOC730098 (11760151_x_at) / RFU OR4N2 (11742367_at) / Fold change /veh OR4N2 (11742367_at) / RFU PRRT2 (11749266_a_at) / Fold change /veh PRRT2 (11749266_a_at) / RFU SNX32 (11753110_a_at) / Fold change /veh SNX32 (11753110_a_at) / RFU CDHR5 (11726645_a_at) / Fold change /veh CDHR5 (11726645_a_at) / RFU RCAN1 (11760418_a_at) / Fold change /veh RCAN1 (11760418_a_at) / RFU FAM167A (11723789_a_at) / Fold change /veh FAM167A (11723789_a_at) / RFU FAM26E (11764081_at) / Fold change /veh FAM26E (11764081_at) / RFU ISYNA1 (11749810_s_at) / Fold change /veh ISYNA1 (11749810_s_at) / RFU ACY1 (11761880_at) / Fold change /veh ACY1 (11761880_at) / RFU 11764098_at / Fold change /veh 11764098_at / RFU SAMD14 (11745864_x_at) / Fold change /veh SAMD14 (11745864_x_at) / RFU NPB (11741838_a_at) / Fold change /veh NPB (11741838_a_at) / RFU TMPRSS6 (11731388_a_at) / Fold change /veh TMPRSS6 (11731388_a_at) / RFU KRTAP10-2 (11738614_at) / Fold change /veh KRTAP10-2 (11738614_at) / RFU ARHGAP8 /// PRR5-ARHGAP8 (11727945_x_at) / Fold change /veh ARHGAP8 /// PRR5-ARHGAP8 (11727945_x_at) / RFU KRTAP5-7 /// NADSYN1 (11734609_at) / Fold change /veh KRTAP5-7 /// NADSYN1 (11734609_at) / RFU RASL12 (11751679_a_at) / Fold change /veh RASL12 (11751679_a_at) / RFU CDKN2B (11736163_a_at) / Fold change /veh CDKN2B (11736163_a_at) / RFU PRF1 (11729649_at) / Fold change /veh PRF1 (11729649_at) / RFU, ZNF638 /// ZNF638-IT1 / Fold change vs veh, ZNF638 /// ZNF638-IT1 / RFU, PANK3 / Fold change vs veh, PANK3 / RFU, SH3YL1 / Fold change vs veh, SH3YL1 / RFU, ZEB2 / Fold change vs veh, ZEB2 / RFU, NRIP1 / Fold change vs veh, NRIP1 / RFU, PTTG1IP / Fold change vs veh, PTTG1IP / RFU, CAPN2 / Fold change vs veh, CAPN2 / RFU, MED14 / Fold change vs veh, MED14 / RFU, SNORA58 / Fold change vs veh, SNORA58 / RFU, C1orf63 / Fold change vs veh, C1orf63 / RFU, LRRFIP1 / Fold change vs veh, LRRFIP1 / RFU, NDUFAF7 / Fold change vs veh, NDUFAF7 / RFU, SLC12A2 / Fold change vs veh, SLC12A2 / RFU, IBTK / Fold change vs veh, IBTK / RFU, ESF1 / Fold change vs veh, ESF1 / Fold change vs veh, TMEM50B / RFU, TAOK1 / Fold change vs veh, TAOK1 / RFU, ACBD3 / Fold change vs veh, ACBD3 / RFU, TMA16 / Fold change vs veh, TMA16 / RFU, RWDD3 / Fold change vs veh, RWDD3 / RFU, BCAT1 / Fold change vs veh, BCAT1 / RFU, EDEM3 / Fold change vs veh, EDEM3 / RFU, TMEM33 / Fold change vs veh, TMEM33 / RFU, WDR75 / Fold change vs veh, WDR75 / RFU, AHCTF1 / Fold change vs veh, AHCTF1 / RFU, TFRC / Fold change vs veh, TFRC / RFU, ZDHHC17 / Fold change vs veh, ZDHHC17 / RFU, NOM1 / Fold change vs veh, NOM1 / RFU, ARL8B / Fold change vs veh, ARL8B / RFU, ZBTB11 / Fold change vs veh, ZBTB11 / RFU, TAMM41 / Fold change vs veh, TAMM41 / RFU, KIAA1704 /// LOC100996395 / Fold change vs veh, KIAA1704 /// LOC100996395 / RFU, ING1 / Fold change vs veh, ING1 / RFU, TRMT61B / Fold change vs veh, TRMT61B / RFU, FUBP3 / Fold change vs veh, FUBP3 / RFU, TP53 / Fold change vs veh, TP53 / RFU, TNKS2 / Fold change vs veh, TNKS2 / RFU, ZFP14 / Fold change vs veh, ZFP14 / RFU, ACTR2 / Fold change vs veh, ACTR2 / RFU, PPP3R1 / Fold change vs veh, PPP3R1 / RFU, PIK3R1 / Fold change vs veh, PIK3R1 / RFU, HNRNPA1 / Fold change vs veh, HNRNPA1 / RFU, RNF170 / Fold change vs veh, RNF170 / RFU, ZNF28 / Fold change vs veh, ZNF28 / RFU, RNGTT / Fold change vs veh, RNGTT / RFU, OGT / Fold change vs veh, OGT / RFU, BRD1 / Fold change vs veh, BRD1 / RFU, MARS / Fold change vs veh, MARS / RFU, ZNF655 / Fold change vs veh, ZNF655 / RFU, FAHD1 / Fold change vs veh, FAHD1 / RFU, BDP1 / Fold change vs veh, BDP1 / RFU, LRRCC1 / Fold change vs veh, LRRCC1 / RFU, ARID1A / Fold change vs veh, ARID1A / RFU, ZNF146 / Fold change vs veh, ZNF146 / RFU, ZNF330 / Fold change vs veh, ZNF330 / RFU, GPN3 / Fold change vs veh, GPN3 / RFU, C9orf123 / Fold change vs veh, C9orf123 / RFU, N4BP2L2 / Fold change vs veh, N4BP2L2 / RFU, ARFIP1 / Fold change vs veh, ARFIP1 / RFU, FAM179B / Fold change vs veh, FAM179B / RFU, BCL10 / Fold change vs veh, BCL10 / RFU, UHRF1BP1L / Fold change vs veh, UHRF1BP1L / RFU, BET1 / Fold change vs veh, BET1 / RFU, CNOT2 / Fold change vs veh, CNOT2 / RFU, ZNF268 / Fold change vs veh, ZNF268 / Fold change vs veh, ZNF507 / RFU, DGCR2 / Fold change vs veh, DGCR2 / RFU, WDSUB1 / Fold change vs veh, WDSUB1 / Fold change vs veh, HSP90B1 /// MIR3652 / RFU, ADSS / Fold change vs veh, ADSS / RFU, GK / Fold change vs veh, GK / RFU, ZNF148 / Fold change vs veh, ZNF148 / RFU, TAF9 / Fold change vs veh, TAF9 / RFU, SLC1A5 / Fold change vs veh, SLC1A5 / RFU, SLMO2 / Fold change vs veh, SLMO2 / RFU, ABCC4 / Fold change vs veh, ABCC4 / RFU, LOC101060439 /// RAP1B / Fold change vs veh, LOC101060439 /// RAP1B / RFU, RFX7 / Fold change vs veh, RFX7 / RFU, GTPBP10 / Fold change vs veh, GTPBP10 / RFU, CNEP1R1 / Fold change vs veh, CNEP1R1 / RFU, BIVM-ERCC5 /// ERCC5 / Fold change vs veh, BIVM-ERCC5 /// ERCC5 / RFU, ILF3 / Fold change vs veh, ILF3 / RFU 11762660_at / Fold change /veh 11762660_at / RFU VCAN (11757783_s_at) / Fold change /veh VCAN (11757783_s_at) / RFU DDX43 (11728927_at) / Fold change /veh DDX43 (11728927_at) / RFU KRT8 (11758188_x_at) / Fold change /veh KRT8 (11758188_x_at) / RFU NKD1 (11759106_at) / Fold change /veh NKD1 (11759106_at) / RFU SRD5A1 (11742802_a_at) / Fold change /veh SRD5A1 (11742802_a_at) / RFU TPSAB1 /// TPSB2 (11721975_s_at) / Fold change /veh TPSAB1 /// TPSB2 (11721975_s_at) / RFU GSTM3 (11746129_a_at) / Fold change /veh GSTM3 (11746129_a_at) / RFU IL23R (11737362_x_at) / Fold change /veh IL23R (11737362_x_at) / RFU TMEM51 (11727254_a_at) / Fold change /veh TMEM51 (11727254_a_at) / RFU PIWIL2 (11732686_x_at) / Fold change /veh PIWIL2 (11732686_x_at) / RFU ORM1 (11744905_x_at) / Fold change /veh ORM1 (11744905_x_at) / RFU CCDC152 (11743942_at) / Fold change /veh CCDC152 (11743942_at) / RFU ECM1 (11717891_a_at) / Fold change /veh ECM1 (11717891_a_at) / RFU IL23R (11748794_a_at) / Fold change /veh IL23R (11748794_a_at) / RFU TNFAIP8L3 (11732012_x_at) / Fold change /veh TNFAIP8L3 (11732012_x_at) / RFU MBOAT4 (11741988_at) / Fold change /veh MBOAT4 (11741988_at) / RFU 11764193_at / Fold change /veh 11764193_at / RFU TMEM53 (11763286_at) / Fold change /veh TMEM53 (11763286_at) / RFU MAGEB2 (11727129_at) / Fold change /veh MAGEB2 (11727129_at) / RFU TMEM200A (11744735_a_at) / Fold change /veh TMEM200A (11744735_a_at) / RFU CCDC152 (11751479_a_at) / Fold change /veh CCDC152 (11751479_a_at) / RFU FAM211A (11726209_a_at) / Fold change /veh FAM211A (11726209_a_at) / RFU RGS16 (11746705_a_at) / Fold change /veh RGS16 (11746705_a_at) / RFU VCAN (11755009_s_at) / Fold change /veh VCAN (11755009_s_at) / RFU RHOB (11743442_s_at) / Fold change /veh RHOB (11743442_s_at) / RFU RGS16 (11720943_a_at) / Fold change /veh RGS16 (11720943_a_at) / RFU RGS16 (11720944_at) / Fold change /veh RGS16 (11720944_at) / RFU, VPS4B / Fold change vs veh, VPS4B / RFU, CREB1 / Fold change vs veh, CREB1 / RFU, DNAJC13 / Fold change vs veh, DNAJC13 / RFU, GNAQ / Fold change vs veh, GNAQ / RFU, CDK5R1 / Fold change vs veh, CDK5R1 / RFU, ZRANB3 / Fold change vs veh, ZRANB3 / RFU, CUL4A / Fold change vs veh, CUL4A / RFU, CCNY / Fold change vs veh, CCNY / RFU, UFL1 / Fold change vs veh, UFL1 / RFU, COG3 / Fold change vs veh, COG3 / RFU, DIAPH2 / Fold change vs veh, DIAPH2 / RFU, SKA2 / Fold change vs veh, SKA2 / RFU, AFF3 / Fold change vs veh, AFF3 / RFU, LMF1 / Fold change vs veh, LMF1 / RFU, IPO11 / Fold change vs veh, IPO11 / RFU, DFFB / Fold change vs veh, DFFB / RFU, FOXP1 / Fold change vs veh, FOXP1 / RFU, CARD8 / Fold change vs veh, CARD8 / RFU, STRN3 / Fold change vs veh, STRN3 / RFU, ADK / Fold change vs veh, ADK / RFU, RASSF2 / Fold change vs veh, RASSF2 / RFU, WIPF1 / Fold change vs veh, WIPF1 / RFU, LARP1B / Fold change vs veh, LARP1B / RFU, RASA1 / Fold change vs veh, RASA1 / RFU, RB1 / Fold change vs veh, RB1 / RFU, PPFIA1 / Fold change vs veh, PPFIA1 / RFU, MAT2A / Fold change vs veh, MAT2A / RFU, CCT5 / Fold change vs veh, CCT5 / RFU, WDR92 / Fold change vs veh, WDR92 / RFU, CUX1 / Fold change vs veh, CUX1 / RFU, TTC7A / Fold change vs veh, TTC7A / RFU, TMEM135 / Fold change vs veh, TMEM135 / RFU, DEPTOR / Fold change vs veh, DEPTOR / RFU, CPM / Fold change vs veh, CPM / RFU, DNAJB6 / Fold change vs veh, DNAJB6 / RFU, CACNA2D3 / Fold change vs veh, CACNA2D3 / RFU, DTX4 / Fold change vs veh, DTX4 / RFU, TFCP2 / Fold change vs veh, TFCP2 / RFU, GMCL1 /// GMCL1P1 / Fold change vs veh, GMCL1 /// GMCL1P1 / RFU, AEBP2 / Fold change vs veh, AEBP2 / RFU, SNHG1 /// SNORD22 /// SNORD25 /// SNORD26 /// SNORD27 /// SNORD28 /// SNORD29 /// SNORD31 / Fold change vs veh, SNHG1 /// SNORD22 /// SNORD25 /// SNORD26 /// SNORD27 /// SNORD28 /// SNORD29 /// SNORD31 / Fold change (Aza/veh), C12orf56 (ProbeSet 11735607_a_at) / Fold change (ACY-1035/veh), C12orf56 (ProbeSet 11735607_a_at) / Fold change (Aza/veh), FGFR1OP (ProbeSet 11751329_s_at) / Fold change (ACY-1035/veh), FGFR1OP (ProbeSet 11751329_s_at) / Fold change (Aza/veh), VPS36 (ProbeSet 11739960_a_at) / Fold change (ACY-1035/veh), VPS36 (ProbeSet 11739960_a_at) / RFU SYPL1 (11715823_x_at) / Fold change /veh SYPL1 (11715823_x_at) / RFU IGFBP7 (11715501_s_at) / Fold change /veh IGFBP7 (11715501_s_at) / RFU REEP3 (11722064_at) / Fold change /veh REEP3 (11722064_at) / RFU IGLL1 (11728026_x_at) / Fold change /veh IGLL1 (11728026_x_at): dose or concentration left out as unconfirmed
Settings: MV-4-11 cells, 48 hours

With `Nc1ncn([C@@H]2O[C@H](CO)[C@@H](O)[C@H]2O)c(=O)n1` [azacitidine] the “RFU TMEM200A (11744735_a_at)” value was 6.62 RFU.
